Legend:
CCK2R [1] = target: T1, CCK2R (Homo sapiens, UniProt P32239); assay: Competitive binding (FACS) on CCK2R-transfected HEK 293T cells with Cy5-labeled Z360; details: HEK 293T transfected, Cy5-labeled Z360 competitive ligand (Table 3)
T1 construct: expressed in transfected cells; host or cells: HEK 293T cells
T1 sequence (P32239 1-447): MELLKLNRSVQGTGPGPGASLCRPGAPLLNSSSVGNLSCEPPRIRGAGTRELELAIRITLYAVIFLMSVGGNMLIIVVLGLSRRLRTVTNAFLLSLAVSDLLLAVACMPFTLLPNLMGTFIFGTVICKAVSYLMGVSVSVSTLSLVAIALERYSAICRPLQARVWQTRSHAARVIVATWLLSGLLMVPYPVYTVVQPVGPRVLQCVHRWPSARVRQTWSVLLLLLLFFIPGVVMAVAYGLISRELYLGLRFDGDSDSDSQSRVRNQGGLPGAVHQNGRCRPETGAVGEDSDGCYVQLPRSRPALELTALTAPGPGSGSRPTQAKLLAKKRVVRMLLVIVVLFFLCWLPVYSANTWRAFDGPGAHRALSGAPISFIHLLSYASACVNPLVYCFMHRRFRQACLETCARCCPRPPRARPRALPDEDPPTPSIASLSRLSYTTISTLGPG
Procedure: Binding Affinity Tested by Using Cy5-Labled Competitive Ligands.
HEK 293T cells were transfected with SSTR2 or CCK2R-expressing plasmid by Lipofectamine 2000 reagent. 24 hours after transfection, cells were harvested and suspended with assay buffer (1% OVA in DMEM). […] The testing compound was further supplemented into the wells at different concentrations. After incubation for 1 hour at dark, cells were washed and suspended in FACS buffer (1% OVA in DPBS). The fluorescent signal was detected by FACS machine and the binding affinity of the testing compound was evaluated by calculation of IC50 for competitive binding of reference compound.

in vivo = details: BALB/c nude, mouse, in vivo, iv, total radioactivity
Procedure, shortened: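 Compounds labelled with ^177Lu in 0.5 M NaOAc pH 4.5 at 95° C for 15 min, then used directly or diluted in PBS with 3 mg/mL ascorbate. BALB/c nude mice bore subcutaneous AR42J flank xenografts (0.05-0.50 g). Organs excised at 4, 24 and 72 h post-injection and γ-counted for % ID and % ID/g.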

CCK2R [2] = target: T2, CCK2R (Rattus norvegicus, UniProt P30553); assay: Competitive cell-binding assay on AR42J cells with 125I-C3 as competitive ligand; details: AR42J cells, 125I-C3 competitive ligand, 37° C. 1 h; read-out: CCK2R/IC50
T2 construct: host or cells: AR42J cells
T2 sequence (P30553 1-452): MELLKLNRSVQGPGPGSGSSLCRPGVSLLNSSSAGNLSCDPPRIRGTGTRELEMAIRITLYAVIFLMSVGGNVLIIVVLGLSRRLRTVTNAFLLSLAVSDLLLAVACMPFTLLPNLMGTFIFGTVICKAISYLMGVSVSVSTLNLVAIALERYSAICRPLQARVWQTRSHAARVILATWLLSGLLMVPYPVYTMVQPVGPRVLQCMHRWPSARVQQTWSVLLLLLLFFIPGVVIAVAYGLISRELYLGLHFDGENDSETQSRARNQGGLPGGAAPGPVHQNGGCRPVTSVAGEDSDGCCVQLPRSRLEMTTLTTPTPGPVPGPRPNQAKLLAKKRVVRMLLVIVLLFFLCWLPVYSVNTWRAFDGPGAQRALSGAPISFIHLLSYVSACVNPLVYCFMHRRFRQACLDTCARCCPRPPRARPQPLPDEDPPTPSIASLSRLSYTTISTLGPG
Procedure, shortened: (§1)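 Rat AR42J cells (1~3×10^6 cells/mL) in RPMI-1640 with 0.25% BSA incubated with 125I-C1 or 125I-C3 (0.02 μCi/well) plus test compound (0-10000 nM) for 1 h at 37° C., n=3. Unbound ligand removed by filtration; bound radioactivity γ-counted; IC50 by nonlinear regression.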

SSTR2 = target: T3, SSTR2 (Rattus norvegicus, UniProt P30680); assay: Competitive cell-binding assay on AR42J cells with 125I-C1 as competitive ligand; details: AR42J cells, 125I-C1 competitive ligand, 37° C. 1 h; read-out: SSTR2/IC50
T3 construct: host or cells: AR42J cells
T3 sequence (P30680 whole entry): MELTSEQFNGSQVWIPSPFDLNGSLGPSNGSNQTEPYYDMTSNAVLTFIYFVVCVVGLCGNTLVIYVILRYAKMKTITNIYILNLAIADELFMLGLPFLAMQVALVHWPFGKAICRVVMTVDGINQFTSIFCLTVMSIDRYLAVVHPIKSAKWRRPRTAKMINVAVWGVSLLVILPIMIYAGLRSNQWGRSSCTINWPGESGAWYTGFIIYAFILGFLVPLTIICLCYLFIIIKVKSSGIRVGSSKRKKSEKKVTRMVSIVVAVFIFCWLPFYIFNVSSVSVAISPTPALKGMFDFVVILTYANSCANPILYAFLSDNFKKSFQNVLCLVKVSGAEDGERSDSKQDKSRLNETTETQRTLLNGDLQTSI
Procedure, shortened: as §1

CCK2R [3] = target: T1, CCK2R; assay: Competitive binding (FACS) on CCK2R-transfected HEK 293T cells with Cy5-labeled F11N derivative; details: HEK 293T transfected, Cy5-labeled F11N derivative competitive ligand (Table 4); read-out: CCK2R IC50

With `CC(O)[C@H](NC(=O)[C@@H]1CSSC[C@H](NC(=O)[C@@H](Cc2ccccc2)NC(=O)COCCOCCNC(=O)[C@H](CCCCNC(=O)CCC(NC(=O)CNC(=O)c2cccc(NC(=O)N[C@@H]3CN(C4CCCCC4)c4ccccc4N(CC(=O)C(C)(C)C)C3=O)c2)C(=O)O)NC(=O)COCCOCCNC(=O)COCCOCCNC(=O)CC[C@H](NC(=O)CN2CCN(CC(=O)O)CCN(CC(=O)O)CCN(CC(=O)O)CC2)C(=O)O)C(=O)N[C@@H](Cc2ccc(O)cc2)C(=O)N[C@H](Cc2c[nH]c3ccccc23)C(=O)N[C@@H](CCCCN)C(=O)N[C@@H]([C@@H](C)O)C(=O)N1)C(=O)O` (stereo in doubt) [Compound I-21, DOTA-gE-OEG-OEG-K(-gE-G-Z360)-OEG-f[CYwKTC]T-OH] the IC50 (CCK2R [1]) was 7.13 nM.

Molecule `C[C@@H](O)[C@H](NC(=O)[C@@H]1CSSC[C@H](NC(=O)[C@@H](Cc2ccccc2)NC(=O)COCCOCCNC(=O)[C@H](CCCCNC(=O)CC[C@H](NC(=O)CNC(=O)c2cccc(NC(=O)N[C@@H]3CN(C4CCCCC4)c4ccccc4N(CC(=O)C(C)(C)C)C3=O)c2)C(=O)O)NC(=O)CN2CCN(CC(=O)O)CCN(CC(=O)O)CCN(CC(=O)O)CC2)C(=O)N[C@@H](Cc2ccc(O)cc2)C(=O)N[C@H](Cc2c[nH]c3ccccc23)C(=O)N[C@@H](CCCCN)C(=O)N[C@@H]([C@@H](C)O)C(=O)N1)C(=O)O` [Compound I-1, DOTA-K(-gE-G-Z360)-OEG-f[CYwKTC]T-OH] has an IC50 (CCK2R [1]) of 7.32 nM, a tissue uptake at 24 h (in vivo; uptake Kidney) of 14 %ID/g and a tissue uptake at 24 h (in vivo; uptake Liver) of 2.86 %ID/g. It also gave a tissue uptake at 24 h (in vivo; uptake Pancreas) of 1.6 %ID/g, a tissue uptake at 24 h (in vivo; uptake Spleen) of 1.6 %ID/g and a tissue uptake at 24 h (in vivo; uptake Stomach) of 2.53 %ID/g. The tissue uptake at 24 h (in vivo; uptake Tumor) was 17.1 %ID/g.

`C[C@@H](O)[C@H](NC(=O)[C@@H]1CSSC[C@H](NC(=O)[C@@H](Cc2ccccc2)NC(=O)[C@H](CCCCNC(=O)[C@H](CCC(=O)O)NC(=O)c2cccc(NC(=O)N[C@@H]3CN(C4CCCCC4)c4ccccc4N(CC(=O)C(C)(C)C)C3=O)c2)NC(=O)CN2CCN(CC(=O)O)CCN(CC(=O)O)CCN(CC(=O)O)CC2)C(=O)N[C@@H](Cc2ccc(O)cc2)C(=O)N[C@H](Cc2c[nH]c3ccccc23)C(=O)N[C@@H](CCCCN)C(=O)N[C@@H]([C@@H](C)O)C(=O)N1)C(=O)O` [Compound I-25, DOTA-K(-E-Z360)-f[CYwKTC]T-OH] gave an IC50 (CCK2R [1]) of 1.36 nM.

Work on `C[C@@H](O)[C@H](NC(=O)[C@@H]1CSSC[C@H](NC(=O)[C@@H](Cc2ccccc2)NC(=O)[C@H](CCCCNC(=O)CC[C@H](NC(=O)CNC(=O)c2cccc(NC(=O)N[C@@H]3CN(C4CCCCC4)c4ccccc4N(CC(=O)C(C)(C)C)C3=O)c2)C(=O)O)NC(=O)CN2CCN(CC(=O)O)CCN(CC(=O)O)CCN(CC(=O)O)CC2)C(=O)N[C@@H](Cc2ccc(O)cc2)C(=O)N[C@H](Cc2c[nH]c3ccccc23)C(=O)N[C@@H](CCCCN)C(=O)N[C@@H]([C@@H](C)O)C(=O)N1)C(=O)O` [Compound I-26, DOTA-K(-gE-G-Z360)-f[CYwKTC]T-OH] yielded an IC50 (CCK2R [1]) of 2.67 nM.

`C[C@@H](O)[C@H](NC(=O)[C@@H]1CSSC[C@H](NC(=O)[C@@H](Cc2ccccc2)NC(=O)[C@H](CCCCNC(=O)COCCOCCNC(=O)[C@H](CCC(=O)O)NC(=O)c2cccc(NC(=O)N[C@@H]3CN(C4CCCCC4)c4ccccc4N(CC(=O)C(C)(C)C)C3=O)c2)NC(=O)CN2CCN(CC(=O)O)CCN(CC(=O)O)CCN(CC(=O)O)CC2)C(=O)N[C@@H](Cc2ccc(O)cc2)C(=O)N[C@H](Cc2c[nH]c3ccccc23)C(=O)N[C@@H](CCCCN)C(=O)N[C@@H]([C@@H](C)O)C(=O)N1)C(=O)O` [Compound I-28, DOTA-K(-OEG-E-Z360)-f[CYwKTC]T-OH] showed an IC50 (CCK2R [1]) of 4.84 nM.

Molecule `C[C@@H](O)[C@H](NC(=O)[C@@H]1CSSC[C@H](NC(=O)[C@@H](Cc2ccccc2)NC(=O)[C@H](CCCCNC(=O)COCCOCCNC(=O)COCCOCCNC(=O)[C@H](CCC(=O)O)NC(=O)c2cccc(NC(=O)N[C@@H]3CN(C4CCCCC4)c4ccccc4N(CC(=O)C(C)(C)C)C3=O)c2)NC(=O)CN2CCN(CC(=O)O)CCN(CC(=O)O)CCN(CC(=O)O)CC2)C(=O)N[C@@H](Cc2ccc(O)cc2)C(=O)N[C@H](Cc2c[nH]c3ccccc23)C(=O)N[C@@H](CCCCN)C(=O)N[C@@H]([C@@H](C)O)C(=O)N1)C(=O)O` [Compound I-29, DOTA-K(-OEG-OEG-E-Z360)-f[CYwKTC]T-OH] has an IC50 (CCK2R [1]) of 0.46 nM.

Work on `C[C@@H](O)[C@H](NC(=O)[C@@H]1CSSC[C@H](NC(=O)[C@@H](Cc2ccccc2)NC(=O)COCCOCCNC(=O)[C@H](CCCCNC(=O)COCCOCCNC(=O)[C@H](CCC(=O)O)NC(=O)c2cccc(NC(=O)N[C@@H]3CN(C4CCCCC4)c4ccccc4N(CC(=O)C(C)(C)C)C3=O)c2)NC(=O)CN2CCN(CC(=O)O)CCN(CC(=O)O)CCN(CC(=O)O)CC2)C(=O)N[C@@H](Cc2ccc(O)cc2)C(=O)N[C@H](Cc2c[nH]c3ccccc23)C(=O)N[C@@H](CCCCN)C(=O)N[C@@H]([C@@H](C)O)C(=O)N1)C(=O)O` [Compound I-30, DOTA-K(-OEG-E-Z360)-OEG-f[CYwKTC]T-OH] yielded an IC50 (CCK2R [1]) of 1.28 nM.

With `C[C@@H](O)[C@H](NC(=O)[C@@H]1CSSC[C@H](NC(=O)[C@@H](Cc2ccccc2)NC(=O)COCCOCCNC(=O)[C@H](CCCCNC(=O)c2cccc(NC(=O)N[C@@H]3CN(C4CCCCC4)c4ccccc4N(CC(=O)C(C)(C)C)C3=O)c2)NC(=O)CN2CCN(CC(=O)O)CCN(CC(=O)O)CCN(CC(=O)O)CC2)C(=O)N[C@@H](Cc2ccc(O)cc2)C(=O)N[C@H](Cc2c[nH]c3ccccc23)C(=O)N[C@@H](CCCCN)C(=O)N[C@@H]([C@@H](C)O)C(=O)N1)C(=O)O` [Compound I-37, DOTA-K(Z360)-OEG-f[CYwKTC]T-OH] the IC50 (CCK2R [2]) was 4.2 nM, the IC50 (SSTR2) was 3.01 nM and the IC50 (CCK2R [1]) was 10.7 nM. The tissue uptake at 24 h (in vivo; uptake Kidney) was 7.79 %ID/g, the tissue uptake at 24 h (in vivo; uptake Liver) was 2.4 %ID/g and the tissue uptake at 24 h (in vivo; uptake Pancreas) was 0.68 %ID/g. It also gave a tissue uptake at 24 h (in vivo; uptake Spleen) of 0.2 %ID/g, a tissue uptake at 24 h (in vivo; uptake Stomach) of 2.58 %ID/g and a tissue uptake at 24 h (in vivo; uptake Tumor) of 23.1 %ID/g.

In the case of `C[C@@H](O)[C@H](NC(=O)[C@@H]1CSSC[C@H](NC(=O)[C@@H](Cc2ccccc2)NC(=O)CCCCCNC(=O)CCCCCNC(=O)[C@H](CCCCNC(=O)[C@H](CCC(=O)O)NC(=O)c2cccc(NC(=O)N[C@@H]3CN(C4CCCCC4)c4ccccc4N(CC(=O)C(C)(C)C)C3=O)c2)NC(=O)CCC(C(=O)O)N2CCN(CC(=O)O)CCN(CC(=O)O)CCN(CC(=O)O)CC2)C(=O)N[C@@H](Cc2ccc(O)cc2)C(=O)N[C@H](Cc2c[nH]c3ccccc23)C(=O)N[C@@H](CCCCN)C(=O)N[C@@H]([C@@H](C)O)C(=O)N1)C(=O)O` (stereo partly drawn) [Compound I-72, DOTAGA- K(-Glu- Z360)- Ahx- Ahx- f[CYwKTC]T- OH], the IC50 (CCK2R [3]) is reported as 5.53 nM.

`C[C@@H](O)[C@H](NC(=O)[C@@H]1CSSC[C@H](NC(=O)[C@@H](Cc2ccccc2)NC(=O)COCCOCCNC(=O)COCCOCCNC(=O)CC[C@H](NC(=O)[C@H](CCCCNC(=O)c2cccc(NC(=O)CC3CN(C4CCCCC4)c4ccccc4N(CC(=O)C(C)(C)C)C3=O)c2)NC(=O)CN2CCN(CC(=O)O)CCN(CC(=O)O)CCN(CC(=O)O)CC2)C(=O)O)C(=O)N[C@@H](Cc2ccc(O)cc2)C(=O)N[C@H](Cc2c[nH]c3ccccc23)C(=O)N[C@@H](CCCCN)C(=O)N[C@@H]([C@@H](C)O)C(=O)N1)C(=O)O` (stereo partly drawn) [Compound I-74, DOTA-K(Z360)-gGlu-OEG-OEG-f]CYwKTC]T-OH] showed an IC50 (CCK2R [3]) of 56.7 nM.
